From PubChem BioAssay AID1745844 (Carcinogenic Potency Database (CPDB), 2022)
Calls of active or inactive are those of the source. How the calls were made is not given here.

System: rodent lifetime carcinogenesis bioassay, tumor incidence TD50
Assay: chronic cancer bioassays in animals – CPDB, compiled studies (AID 1745844)

## ClC=CCCl
mouse, strain B6C3F1, females, by gavage, site: any site (literature study), lesion: several types, types named in the paper, dosed 104 weeks, study length 106 weeks
  TD50: 34.9 mg/kg/day
mouse, strain B6C3F1, females, by gavage, site: liver, lesion: hepatocellular adenoma + hepatocellular carcinoma + neoplastic nodule, dosed 104 weeks, study length 106 weeks
  TD50: 89.3 mg/kg/day
mouse, strain B6C3F1, females, by gavage, site: liver, lesion: hepatocellular adenoma + hepatocellular carcinoma, dosed 104 weeks, study length 106 weeks
  TD50: 89.3 mg/kg/day
mouse, strain B6C3F1, females, by gavage, site: liver, lesion: hepatocellular adenoma, dosed 104 weeks, study length 106 weeks
  TD50: 215 mg/kg/day
mouse, strain B6C3F1, females, by gavage, site: lung + stomach + urinary bladder, lesion: alveolar/bronchiolar adenoma + squamous-cell carcinoma + squamous-cell papilloma + transitional-cell carcinoma, dosed 104 weeks, study length 106 weeks
  TD50: 36.3 mg/kg/day
mouse, strain B6C3F1, females, by gavage, site: lung, lesion: alveolar/bronchiolar adenoma + alveolar/bronchiolar carcinoma, dosed 104 weeks, study length 106 weeks
  TD50: 182 mg/kg/day
mouse, strain B6C3F1, females, by gavage, site: lung, lesion: alveolar/bronchiolar adenoma, dosed 104 weeks, study length 106 weeks
  TD50: 149 mg/kg/day
mouse, strain B6C3F1, females, by gavage, site: stomach, lesion: squamous-cell carcinoma + squamous-cell papilloma, dosed 104 weeks, study length 106 weeks
  TD50: 344 mg/kg/day
mouse, strain B6C3F1, females, by gavage, site: urinary bladder, lesion: transitional-cell carcinoma, dosed 104 weeks, study length 106 weeks
  TD50: 49.6 mg/kg/day
mouse, strain B6C3F1, females, in feed, site: liver, lesion: hepatocellular adenoma, dosed 104 weeks, study length 104 weeks
  carcinogen call: negative (inactive)
mouse, strain B6C3F1, females, in feed, site: liver, lesion: hepatocellular carcinoma, dosed 104 weeks, study length 104 weeks
  carcinogen call: negative (inactive)
mouse, strain B6C3F1, females, in feed, site: lung, lesion: alveolar/bronchiolar adenoma, dosed 104 weeks, study length 104 weeks
  carcinogen call: negative (inactive)
mouse, strain B6C3F1, females, in feed, site: lung, lesion: alveolar/bronchiolar carcinoma, dosed 104 weeks, study length 104 weeks
  carcinogen call: negative (inactive)
mouse, strain B6C3F1, females, in feed, site: stomach, lesion: one or several types, types not named, dosed 52 weeks, study length 52 weeks
  carcinogen call: negative (inactive)
mouse, strain B6C3F1, females, inhaled, site: any site (literature study), lesion: several types, types named in the paper, dosed 104 weeks, study length 104 weeks
  carcinogen call: negative (inactive)
mouse, strain B6C3F1, females, inhaled, site: liver, lesion: several types, types named in the paper, dosed 104 weeks, study length 104 weeks
  TD50: 1810 mg/kg/day (inactive)
mouse, strain B6C3F1, females, inhaled, site: lung, lesion: alveolar/bronchiolar adenoma, dosed 104 weeks, study length 104 weeks
  carcinogen call: negative (inactive)
mouse, strain B6C3F1, females, inhaled, site: lung, lesion: one or several types, types not named, dosed 52 weeks, study length 52 weeks
  carcinogen call: negative (inactive)
mouse, strain B6C3F1, females, inhaled, site: mesenteric lymph node, lesion: lymphosarcoma, dosed 104 weeks, study length 104 weeks
  carcinogen call: negative (inactive)
mouse, strain B6C3F1, females, inhaled, site: pituitary gland, lesion: adenoma, dosed 104 weeks, study length 104 weeks
  TD50: 19 mg/kg/day (inactive)
mouse, strain B6C3F1, males, by gavage, site: any site (literature study), lesion: several types, types named in the paper, dosed 104 weeks, study length 105 weeks
  TD50: 309 mg/kg/day
mouse, strain B6C3F1, males, by gavage, site: liver, lesion: hepatocellular adenoma + hepatocellular carcinoma + neoplastic nodule, dosed 104 weeks, study length 105 weeks
  TD50: 1930 mg/kg/day
mouse, strain B6C3F1, males, by gavage, site: lung, lesion: alveolar/bronchiolar adenoma + alveolar/bronchiolar carcinoma, dosed 104 weeks, study length 105 weeks
  TD50: 127 mg/kg/day
mouse, strain B6C3F1, males, in feed, site: liver, lesion: hepatocellular adenoma, dosed 104 weeks, study length 104 weeks
  TD50: 78.2 mg/kg/day (inactive)
mouse, strain B6C3F1, males, in feed, site: liver, lesion: hepatocellular carcinoma, dosed 104 weeks, study length 104 weeks
  carcinogen call: negative (inactive)
mouse, strain B6C3F1, males, in feed, site: lung, lesion: alveolar/bronchiolar adenoma, dosed 104 weeks, study length 104 weeks
  TD50: 368 mg/kg/day (inactive)
mouse, strain B6C3F1, males, in feed, site: lung, lesion: alveolar/bronchiolar carcinoma, dosed 104 weeks, study length 104 weeks
  carcinogen call: negative (inactive)
mouse, strain B6C3F1, males, in feed, site: stomach, lesion: one or several types, types not named, dosed 52 weeks, study length 52 weeks
  carcinogen call: negative (inactive)
mouse, strain B6C3F1, males, inhaled, site: any site (literature study), lesion: several types, types named in the paper, dosed 104 weeks, study length 104 weeks
  TD50: 229 mg/kg/day
mouse, strain B6C3F1, males, inhaled, site: lacrimal gland, lesion: cystadenoma, dosed 104 weeks, study length 104 weeks
  TD50: 82.2 mg/kg/day
mouse, strain B6C3F1, males, inhaled, site: lung, lesion: alveolar/bronchiolar adenoma, dosed 104 weeks, study length 104 weeks
  TD50: 118 mg/kg/day
mouse, strain B6C3F1, males, inhaled, site: lung, lesion: one or several types, types not named, dosed 52 weeks, study length 52 weeks
  carcinogen call: negative (inactive)
rat, strain Fischer 344, females, by gavage, site: liver, lesion: hepatocellular adenoma + hepatocellular carcinoma + neoplastic nodule, dosed 104 weeks, study length 106 weeks
  TD50: 168 mg/kg/day
rat, strain Fischer 344, females, by gavage, site: stomach, lesion: squamous-cell papilloma, dosed 104 weeks, study length 106 weeks
  TD50: 176 mg/kg/day
rat, strain Fischer 344, females, by gavage, site: thyroid gland, lesion: follicular-cell adenoma + follicular-cell carcinoma, dosed 104 weeks, study length 106 weeks
  TD50: 137 mg/kg/day
rat, strain Fischer 344, females, in feed, site: liver, lesion: hepatocellular adenoma, dosed 104 weeks, study length 104 weeks
  TD50: 334 mg/kg/day
rat, strain Fischer 344, females, in feed, site: stomach, lesion: one or several types, types not named, dosed 52 weeks, study length 52 weeks
  carcinogen call: negative (inactive)
rat, strain Fischer 344, females, in feed, site: uterus, lesion: endometrial stromal polyp, dosed 104 weeks, study length 104 weeks
  TD50: 61.4 mg/kg/day
rat, strain Fischer 344, females, inhaled, site: any site (literature study), lesion: one or several types, types not named, dosed 52 weeks, study length 52 weeks
  carcinogen call: negative (inactive)
rat, strain Fischer 344, females, inhaled, site: any site (literature study), lesion: several types, types named in the paper, dosed 105 weeks, study length 105 weeks
  carcinogen call: negative (inactive)
rat, strain Fischer 344, females, inhaled, site: liver, lesion: hepatocellular adenoma, dosed 105 weeks, study length 105 weeks
  TD50: 1590 mg/kg/day (inactive)
rat, strain Fischer 344, males, by gavage, site: forestomach + liver + stomach, lesion: squamous-cell papilloma + neoplastic nodule + squamous-cell carcinoma, dosed 104 weeks, study length 106 weeks
  TD50: 33.2 mg/kg/day
rat, strain Fischer 344, males, by gavage, site: forestomach + stomach, lesion: squamous-cell papilloma + squamous-cell carcinoma, dosed 104 weeks, study length 106 weeks
  TD50: 64.1 mg/kg/day
rat, strain Fischer 344, males, by gavage, site: forestomach + stomach, lesion: squamous-cell papilloma, dosed 104 weeks, study length 106 weeks
  TD50: 97 mg/kg/day
rat, strain Fischer 344, males, by gavage, site: liver, lesion: hepatocellular adenoma + hepatocellular carcinoma + neoplastic nodule, dosed 104 weeks, study length 106 weeks
  TD50: 68 mg/kg/day
rat, strain Fischer 344, males, by gavage, site: liver, lesion: hepatocellular carcinoma + neoplastic nodule, dosed 104 weeks, study length 106 weeks
  TD50: 68 mg/kg/day
rat, strain Fischer 344, males, by gavage, site: liver, lesion: neoplastic nodule, dosed 104 weeks, study length 106 weeks
  TD50: 76 mg/kg/day
rat, strain Fischer 344, males, by gavage, site: stomach, lesion: squamous-cell carcinoma, dosed 104 weeks, study length 106 weeks
  TD50: 213 mg/kg/day
rat, strain Fischer 344, males, in feed, site: liver, lesion: hepatocellular adenoma, dosed 104 weeks, study length 104 weeks
  TD50: 100 mg/kg/day
rat, strain Fischer 344, males, in feed, site: liver, lesion: hepatocellular carcinoma, dosed 104 weeks, study length 104 weeks
  TD50: 1360 mg/kg/day
rat, strain Fischer 344, males, in feed, site: stomach, lesion: one or several types, types not named, dosed 52 weeks, study length 52 weeks
  carcinogen call: negative (inactive)
rat, strain Fischer 344, males, inhaled, site: any site (literature study), lesion: one or several types, types not named, dosed 52 weeks, study length 52 weeks
  carcinogen call: negative (inactive)
rat, strain Fischer 344, males, inhaled, site: any site (literature study), lesion: several types, types named in the paper, dosed 105 weeks, study length 105 weeks
  carcinogen call: negative (inactive)
rat, strain Fischer 344, males, inhaled, site: liver, lesion: hepatocellular adenoma, dosed 105 weeks, study length 105 weeks
  carcinogen call: negative (inactive)

## CC(COc1ccccc1)N(CCCl)Cc1ccccc1 (centres undefined)
mouse, strain B6C3F1, females, i.p., site: abdominal cavity, lesion: sarcoma, NOS, dosed 52 weeks, study length 84 weeks
  TD50: 5.85 mg/kg/day
mouse, strain B6C3F1, females, i.p., site: any site (literature study), lesion: several types, types named in the paper, dosed 52 weeks, study length 84 weeks
  TD50: 3.08 mg/kg/day
mouse, strain B6C3F1, males, i.p., site: abdominal cavity, lesion: sarcoma, NOS, dosed 51 weeks, study length 83 weeks
  TD50: 4.95 mg/kg/day
mouse, strain B6C3F1, males, i.p., site: any site (literature study), lesion: several types, types named in the paper, dosed 51 weeks, study length 83 weeks
  TD50: 2.17 mg/kg/day
mouse, strain B6C3F1, males, i.p., site: liver, lesion: hepatocellular adenoma + hepatocellular carcinoma + neoplastic nodule, dosed 51 weeks, study length 83 weeks
  TD50: 5.84 mg/kg/day
mouse, strain B6C3F1, males, i.p., site: lung, lesion: alveolar/bronchiolar adenoma + alveolar/bronchiolar carcinoma, dosed 51 weeks, study length 83 weeks
  TD50: 63 mg/kg/day
rat, strain Sprague-Dawley, females, i.p., site: any site (literature study), lesion: several types, types named in the paper, dosed 52 weeks, study length 83 weeks
  TD50: 1.34 mg/kg/day
rat, strain Sprague-Dawley, females, i.p., site: peritoneum, lesion: sarcoma, NOS, dosed 52 weeks, study length 83 weeks
  TD50: 2.36 mg/kg/day
rat, strain Sprague-Dawley, males, i.p., site: any site (literature study), lesion: several types, types named in the paper, dosed 52 weeks, study length 83 weeks
  TD50: 0.555 mg/kg/day
rat, strain Sprague-Dawley, males, i.p., site: peritoneum, lesion: sarcoma, NOS, dosed 52 weeks, study length 83 weeks
  TD50: 0.71 mg/kg/day

## O=NN1CCCCCCCCCCCC1
rat, strain NZR/Gd, females, by gavage, site: liver, lesion: hepatocellular tumor, dosed 52 weeks, study length 171 weeks
  TD50: 10.9 mg/kg/day
rat, strain NZR/Gd, females, by gavage, site: lung, lesion: several types, types named in the paper, dosed 52 weeks, study length 171 weeks
  TD50: 7.96 mg/kg/day
rat, strain NZR/Gd, males, by gavage, site: heart, lesion: one or several types, types not named, dosed 52 weeks, study length 150 weeks
  TD50: 2.15 mg/kg/day
rat, strain NZR/Gd, males, by gavage, site: liver, lesion: hepatocellular tumor, dosed 52 weeks, study length 150 weeks
  TD50: 16.8 mg/kg/day
rat, strain NZR/Gd, males, by gavage, site: lung, lesion: several types, types named in the paper, dosed 52 weeks, study length 150 weeks
  TD50: 14.6 mg/kg/day
